Measurements taken from PMC3131451 (Journal of medicinal chemistry, 2010).

What was measured:
PI3Kα (PIK3CA/PIK3R1) = PI3Kα (PIK3CA/PIK3R1) (Homo sapiens, UniProt P42336); assay: LanthaScreen Eu kinase binding assay PI3Kα; details: for activity in words, biochemical and cell-based assays: both in the biochemical and cell-based assays (Table 1)
PRAS40 [pS183] = assay: LanthaScreen cellular assay PRAS40 [pSer183]; details: HEK293E, 1 h, read-out: Cell-based Assay IC50 PRAS40 [pS183]
[1] = system: Hela cervical carcinoma cells; assay: Anti-proliferative assay; details: Homo sapiens, 72 h, read-out: Cell-based Assay GI50 Hela
PI-3Kα = PI-3Kα (Homo sapiens, UniProt P42336); assay: SelectScreen Biochemical Kinase Profiling PI-3Kα; details: in vitro displacement assays against the PI3K isoforms
U87 glioblastoma cells = assay: 3D culture assay, U87 spheroids; format: cell-based, human; details: 10 µM every day, total of 6 days
314 protein kinases = assay: Selectivity panel against 314 protein kinases; format: biochemical; details: 10 µM, preliminary selectivity panel
DNA-PK = DNA-PK (Homo sapiens, UniProt P78527); assay: Selectivity panel, kinase inhibition; format: biochemical
mTOR (FRAP1) = mTOR (FRAP1) (Homo sapiens, UniProt P42345); assay: LanthaScreen Eu kinase binding assay mTOR; details: read-out: Kinase assay IC50 mTOR
PDK1 = target: T1, PDK1 (Homo sapiens, UniProt O15530); assay: Z'-LYTE kinase activity assay PDK1; format: biochemical; details: read-out: Kinase assay IC50 PDK1, ATP at Km
T1 sequence (O15530 1-556): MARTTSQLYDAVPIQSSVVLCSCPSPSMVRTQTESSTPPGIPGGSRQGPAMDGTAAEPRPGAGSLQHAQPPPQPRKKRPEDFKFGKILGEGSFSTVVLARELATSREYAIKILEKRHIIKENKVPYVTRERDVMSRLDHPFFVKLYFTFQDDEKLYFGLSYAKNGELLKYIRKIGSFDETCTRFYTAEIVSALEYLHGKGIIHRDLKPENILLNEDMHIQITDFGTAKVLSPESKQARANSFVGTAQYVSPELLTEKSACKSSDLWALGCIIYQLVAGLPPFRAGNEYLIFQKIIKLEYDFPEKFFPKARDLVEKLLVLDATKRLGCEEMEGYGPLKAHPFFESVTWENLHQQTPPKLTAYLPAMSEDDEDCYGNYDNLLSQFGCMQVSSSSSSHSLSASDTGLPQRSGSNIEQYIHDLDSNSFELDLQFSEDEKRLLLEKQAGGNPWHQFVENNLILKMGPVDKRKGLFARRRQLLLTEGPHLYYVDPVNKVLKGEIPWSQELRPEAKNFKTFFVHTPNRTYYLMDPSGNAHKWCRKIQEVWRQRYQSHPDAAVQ

PI3Kα (PIK3CA/PIK3R1), sequence (P42336 whole entry): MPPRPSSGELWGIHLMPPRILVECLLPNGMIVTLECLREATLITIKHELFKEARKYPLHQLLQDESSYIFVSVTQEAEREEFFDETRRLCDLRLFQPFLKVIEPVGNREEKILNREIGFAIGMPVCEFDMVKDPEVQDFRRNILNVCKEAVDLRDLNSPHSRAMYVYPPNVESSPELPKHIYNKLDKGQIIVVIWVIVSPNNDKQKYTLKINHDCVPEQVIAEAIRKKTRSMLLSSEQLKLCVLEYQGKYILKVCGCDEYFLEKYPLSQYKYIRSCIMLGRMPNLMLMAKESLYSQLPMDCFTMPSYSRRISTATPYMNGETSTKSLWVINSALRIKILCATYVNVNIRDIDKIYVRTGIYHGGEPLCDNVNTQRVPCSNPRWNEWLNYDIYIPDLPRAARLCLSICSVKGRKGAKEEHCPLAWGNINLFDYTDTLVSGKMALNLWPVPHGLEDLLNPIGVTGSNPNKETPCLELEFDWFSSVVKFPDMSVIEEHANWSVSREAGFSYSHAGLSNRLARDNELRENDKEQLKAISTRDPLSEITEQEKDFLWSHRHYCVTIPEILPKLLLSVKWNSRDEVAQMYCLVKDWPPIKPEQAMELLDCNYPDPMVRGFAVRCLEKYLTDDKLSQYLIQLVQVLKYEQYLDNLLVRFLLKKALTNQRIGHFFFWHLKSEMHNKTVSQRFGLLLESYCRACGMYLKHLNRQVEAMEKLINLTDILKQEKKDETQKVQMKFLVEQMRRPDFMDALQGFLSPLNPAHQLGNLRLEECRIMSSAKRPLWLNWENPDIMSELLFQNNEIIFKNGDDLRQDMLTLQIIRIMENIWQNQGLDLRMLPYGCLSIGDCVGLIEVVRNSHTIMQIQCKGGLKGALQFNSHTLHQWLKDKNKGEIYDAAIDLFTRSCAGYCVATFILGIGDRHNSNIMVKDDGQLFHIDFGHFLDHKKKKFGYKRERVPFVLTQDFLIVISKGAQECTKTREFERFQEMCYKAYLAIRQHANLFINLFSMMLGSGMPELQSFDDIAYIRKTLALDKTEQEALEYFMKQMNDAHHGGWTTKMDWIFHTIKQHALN
PI3Kα (PIK3CA/PIK3R1), sequence (P27986 whole entry partner): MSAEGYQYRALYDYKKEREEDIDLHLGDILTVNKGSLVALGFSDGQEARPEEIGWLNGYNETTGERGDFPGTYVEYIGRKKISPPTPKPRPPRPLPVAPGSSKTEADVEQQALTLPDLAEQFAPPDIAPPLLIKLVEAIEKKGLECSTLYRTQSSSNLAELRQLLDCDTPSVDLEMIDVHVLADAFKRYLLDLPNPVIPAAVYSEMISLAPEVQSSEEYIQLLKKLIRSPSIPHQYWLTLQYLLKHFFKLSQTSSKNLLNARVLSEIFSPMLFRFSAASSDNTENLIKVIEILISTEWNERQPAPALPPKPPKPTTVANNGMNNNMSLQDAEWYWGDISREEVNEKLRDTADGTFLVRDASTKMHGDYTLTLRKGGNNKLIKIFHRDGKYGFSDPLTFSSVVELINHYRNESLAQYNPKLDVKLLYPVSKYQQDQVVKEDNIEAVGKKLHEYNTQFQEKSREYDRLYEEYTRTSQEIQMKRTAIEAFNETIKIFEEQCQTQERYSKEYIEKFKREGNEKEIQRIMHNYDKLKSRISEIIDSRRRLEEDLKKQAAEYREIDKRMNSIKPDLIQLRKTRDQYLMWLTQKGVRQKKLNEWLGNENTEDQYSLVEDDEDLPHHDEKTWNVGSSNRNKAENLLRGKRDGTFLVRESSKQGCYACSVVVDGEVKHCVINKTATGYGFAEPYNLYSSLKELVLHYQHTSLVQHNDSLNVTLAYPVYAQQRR
PI-3Kα, sequence (P42336 whole entry, canonical isoform): as the sequence (P42336 whole entry) above
PI-3Kα, sequence (P27986 whole entry partner, canonical isoform): as the sequence (P27986 whole entry partner) above
mTOR (FRAP1), sequence (P42345 1360-2549 limits assumed): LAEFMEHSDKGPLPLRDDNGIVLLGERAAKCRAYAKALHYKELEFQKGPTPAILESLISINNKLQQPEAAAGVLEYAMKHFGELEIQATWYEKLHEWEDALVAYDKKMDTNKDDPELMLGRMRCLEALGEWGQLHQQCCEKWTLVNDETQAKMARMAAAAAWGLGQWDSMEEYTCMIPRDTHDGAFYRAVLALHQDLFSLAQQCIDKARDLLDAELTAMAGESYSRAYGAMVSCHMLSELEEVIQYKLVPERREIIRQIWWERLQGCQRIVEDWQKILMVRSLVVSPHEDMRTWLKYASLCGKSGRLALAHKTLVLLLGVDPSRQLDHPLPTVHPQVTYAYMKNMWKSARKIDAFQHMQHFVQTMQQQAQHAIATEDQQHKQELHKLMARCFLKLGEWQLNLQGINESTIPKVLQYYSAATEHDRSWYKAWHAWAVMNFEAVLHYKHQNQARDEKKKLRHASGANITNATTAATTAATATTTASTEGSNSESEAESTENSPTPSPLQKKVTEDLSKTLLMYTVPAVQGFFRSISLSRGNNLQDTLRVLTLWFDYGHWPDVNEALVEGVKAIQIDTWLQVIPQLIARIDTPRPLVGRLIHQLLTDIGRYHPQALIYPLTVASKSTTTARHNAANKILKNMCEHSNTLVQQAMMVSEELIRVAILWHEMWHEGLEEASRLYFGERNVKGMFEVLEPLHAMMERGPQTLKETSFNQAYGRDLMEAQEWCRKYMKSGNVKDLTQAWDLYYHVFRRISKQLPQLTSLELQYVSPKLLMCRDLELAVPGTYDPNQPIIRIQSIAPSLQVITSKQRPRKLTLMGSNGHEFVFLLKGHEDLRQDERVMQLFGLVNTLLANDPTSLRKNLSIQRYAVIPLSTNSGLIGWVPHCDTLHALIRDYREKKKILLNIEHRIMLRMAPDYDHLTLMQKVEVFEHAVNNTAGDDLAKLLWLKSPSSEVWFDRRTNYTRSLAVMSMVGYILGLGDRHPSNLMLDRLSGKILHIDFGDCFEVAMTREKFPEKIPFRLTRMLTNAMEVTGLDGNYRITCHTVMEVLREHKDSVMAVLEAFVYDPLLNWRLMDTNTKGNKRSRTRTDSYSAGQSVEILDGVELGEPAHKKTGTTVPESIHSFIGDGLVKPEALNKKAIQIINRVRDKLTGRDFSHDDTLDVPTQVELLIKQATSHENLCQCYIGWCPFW

| Molecule | PI3Kα activity in words (PI3Kα (PIK3CA/PIK3R1)) | IC50 (AKT [pT308]) [µM] | also measured |
| --- | --- | --- | --- |
| Fc1cc(F)cc(C#Cc2n[nH]c3ccccc23)c1 [Compound 8, 3-((3,5-difluorophenyl)ethynyl)-1H-indazole] | poor activity | > 100 | IC50 (PRAS40 [pS183]): > 200 µM |
| Nc1ccc(C#Cc2n[nH]c3ccccc23)cc1 [Compound 6, 4-((1H-indazol-3-yl)ethynyl)aniline] |  | 17.1 | GI50 [1]: 3.6 µM; selectivity for α isoform over the β and γ isoforms (PI-3Kα): about 100 fold |
| C(#Cc1n[nH]c2ccccc12)c1ccccn1 [Compound 12, 3-(pyridin-2-ylethynyl)-1H-indazole] |  | > 100 |  |
| FC(F)(F)c1cc(C#Cc2n[nH]c3ccccc23)cc(C(F)(F)F)c1 [Compound 17, 3-((3,5-bis(trifluoromethyl)phenyl)ethynyl)-1H-indazole] | poor activity | > 100 |  |
| C(#Cc1n[nH]c2ccccc12)c1ccccc1 [Compound 7, 3-(phenylethynyl)-1H-indazole] | poor activity | > 100 |  |
| C(#Cc1n[nH]c2ccccc12)c1ccncc1 [Compound 10, 3-(pyridin-4-ylethynyl)-1H-indazole] |  |  | U87 spheroid cell growth/proliferation (spheroid volumes) (U87 glioblastoma cells): strongly suppressed cell growth/proliferation; share of 314 protein kinases showing ≥ 50% inhibition (314 protein kinases): less than 10%; inhibition at 10 µM (DNA-PK): > 50% |
| C(#CC1CC1)c1n[nH]c2ccccc12 [Compound 15, 3-(cyclopropylethynyl)-1H-indazole] |  | > 50 | activity in words, biochemical and cell-based assays (PI3Kα (PIK3CA/PIK3R1)): inactive |
| Nc1ccccc1C#Cc1n[nH]c2ccccc12 [Compound 16, 2-((1H-indazol-3-yl)ethynyl)aniline] |  | > 100 |  |
| C(#CC1CCCC1)c1n[nH]c2ccccc12 [Compound 14, 3-(cyclopentylethynyl)-1H-indazol] |  | > 50 | activity in words, biochemical and cell-based assays (PI3Kα (PIK3CA/PIK3R1)): inactive |
| 3-(pyridin-2-ylethynyl)-1H-pyrazolo[3,4-b]pyridine [Compound 21] |  |  | IC50 (PI3Kα (PIK3CA/PIK3R1); read-out: Kinase assay IC50 PI3Kα, LanthaScreen Eu kinase binding assay): 9 µM; IC50 (mTOR (FRAP1)): 5 µM; IC50 (PDK1): > 50 µM |
| N#Cc1ccc(C#Cc2n[nH]c3ccccc23)cc1 [Compound 19, 4-((1H-indazol-3-yl)ethynyl)benzonitrile] | poor activity | > 50 |  |
| C(#Cc1n[nH]c2ncccc12)c1ccncc1 [Compound 20, 3-(pyridin-4-ylethynyl)-1H-pyrazolo[3,4-b]pyridine] |  |  | loss of PI3Kα activity versus compound 10 (PI3Kα (PIK3CA/PIK3R1); pyrazolopyridine analog compared with indazole 10): 10 fold |
| C(#Cc1n[nH]c2ccccc12)c1ccsc1 [Compound 18, 3-(thiophen-3-ylethynyl)-1H-indazole] | poor activity | > 100 |  |
| CN(C)CC#Cc1n[nH]c2ccccc12 [Compound 11, 3-(1H-indazol-3-yl)-N,N-dimethylprop-2-yn-1-amine] |  | > 100 | activity in words, biochemical and cell-based assays (PI3Kα (PIK3CA/PIK3R1)): inactive |
